# Results: patent publication US20030125325A1, “Pyrazolyl benzyl thioethers” (priority 2001, published 2003)
# Columns and labels:
# Puccinia recondita = assay: Puccinia test (wheat)/protective; type: in vivo; conditions: protective, application rate 100 g/ha, evaluation 10 days after inoculation, 0% = control, 100% = no infection
# Description: Puccinia test (wheat)/protective
# To produce a suitable preparation of active compound, 1 part by weight of active compound is mixed with the stated amounts of solvent and emulsifier, and the concentrate is diluted with water to the desired concentration.
# To test for protective activity, young plants are sprayed with the preparation of active compound at the stated application rate. After the spray coating has dried, the plants are sprayed with a conidia suspension of Puccinia recondita. The plants remain in an incubation cabin at 20° C. and 100% relative atmospheric humidity for 48 hours.
# The plants are then placed in a greenhouse at a temperature of about 20° C. and a relative atmospheric humidity of 80% to promote the development of rust pustules.
# Evaluation is carried out 10 days after the inoculation. 0% means an efficacy which corresponds to that of the control, whereas an efficacy of 100% means that no infection is observed.
# [1] = logP determination by HPLC (EEC directive 79/831 Annex V. A8); type: physicochemical; conditions: gradient method, acetonitrile/0.1% aqueous phosphoric acid, preparation examples
# Description: The logP values were determined in accordance with EEC directive 79/831 Annex V. A8 by HPLC (gradient method, acetonitrile/0.1% aqueous phosphoric acid) […]
SMILES,efficacy (Puccinia recondita),chromatographic logP [1]
"CON=C(C1=NOCCO1)c1ccccc1CSc1ccn(-c2ccc(Cl)cc2)n1 [Example 1, [2-({[1-(4-chlorophenyl)-1H-pyrazol-3-yl]sulphanyl}methyl)phenyl](5,6-dihydro-1,4,2-dioxazin-3-yl)methanone O-methyloxime]",≥ 98%,3.69
"CON=C(C(=O)OC)c1ccccc1CSc1ccn(-c2ccc(Br)cc2)n1 [Example 2, methyl [2-({[1-(4-bromophenyl)-1H-pyrazol-3-yl]sulphanyl}methyl)phenyl](methoxyimino)acetate]",,4.07
"CNC(=O)C(=NOC)c1ccccc1CSc1ccn(-c2ccc(Br)cc2)n1 [Example 3, N-methyl-[2-( {[1-(4-bromophenyl)-1H-pyrazol-3-yl]sulphanyl}methyl)phenyl]-(methoxyimino)acetamide]",,3.5
